Experimental data as given in patent US11214594B2, “Antimicrobial peptide having synergistic antibacterial effect with antibiotics on multidrug resistant bacteria, and use thereof” (priority 2016, dated 2022).
≈ marks a conversion by molar mass, not a printed value. Like-named read-outs stand apart in the source and are kept apart here. Where a SMILES comes first, the peptide text is derived from it. [ ]: non-standard residue; d: D form.

Columns and labels:
[1] = tested on: MDRPA 2003; type: cell-based, Pseudomonas aeruginosa; conditions: MDRPA 2003; agent alone
How it was run: (§1)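 Each strain is brought to 2×10^6 CFU in nutrient-sufficient Mueller-Hinton medium and dispensed into wells. Peptide solutions, stepwise diluted 2:1 in the same medium, are then added. The minimal concentration preventing growth gives the MIC.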

[2] = tested on: MDRPA 2002; type: cell-based, Pseudomonas aeruginosa; conditions: MDRPA 2002; agent alone
How it was run: as §1

[3] = tested on: A. baumannii; test: MIC of antibiotic during combined treatment with antimicrobial peptide; type: cell-based, Acinetobacter baumannii; conditions: A. baumannii
How it was run: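 Checkerboard-type MIC of peptide–antibiotic mixtures in MH medium: the antibiotic was serially diluted in MH medium and added to wells, then the reversed arrangement was also tested.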

[4] = tested on: E. coli; type: cell-based, Escherichia coli
Procedure: (§2) A synergistic effect of a peptide and antibiotics was evaluated at antibacterial activity against a strain by using an MIC value determined for each mixed solution. For the evaluation, a fractional inhibitory concentration (FIC) value was used (Elion, Gertrude B., Samuel Singer, and George H. Hitchings. Journal of Biological Chemistry 208.2 (1954): 477-488.).
(§3) A method generally used to decide the synergistic effect by using the FIC values is a checkerboard assay, and is a method that selects the lowest FIC index value in a well in which the growth of bacteria is suppressed. However, the selection of one FIC index in the method has a problem in that when the antibacterial activity of the antibiotics is lower, the FIC index is calculated so as to have a big synergistic effect, and is not accurate and has many experimental errors. Thus, with respect to the FIC index calculated by [Equation 1], an average FIC index was again calculated by using the following [Equation 2] (He, Jing, Charles G. Starr, and William C. Wimley. Biochimica et Biophysica Acta (BBA)-Biomembranes 1848.1 (2015): 8-15.).

[5] = tested on: MDREC 1229; type: cell-based, Escherichia coli
Procedure: as §2, §3

[6] = tested on: MDRAB 12035; test: MIC of antibiotic during combined treatment with antimicrobial peptide; type: cell-based, Acinetobacter baumannii
How it was run: (§4)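 Strains in MH medium at 2×10^6 CFU/ml were mixed with peptide diluted stepwise (2:1) from its MIC, then antibiotic dilutions in MH medium were added to give the antibiotic MIC. The reversed set-up, peptide titrated against fixed antibiotic, gave the peptide MIC.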

[7] = tested on: E. coli; type: cell-based, Escherichia coli; conditions: E. coli
How it was run: as §4

[8] = tested on: MDREC 1229; type: cell-based, Escherichia coli; remark: listed apart in the source
How it was run: as §4

[9] = tested on: A. baumannii; type: cell-based, Acinetobacter baumannii
Procedure: as §2, §3

[10] = tested on: MDRAB 12035; type: cell-based, Acinetobacter baumannii
Procedure: as §2, §3

[11] = tested on: B. subtilis; test: microbe, parasite or virus in culture; type: cell-based, Bacillus subtilis
How it was run: as §1

[12] = tested on: A. baumannii; test: microbe, parasite or virus in culture; type: cell-based, Acinetobacter baumannii
How it was run: as §1

[13] = tested on: MDRAB 12035; test: microbe, parasite or virus in culture; type: cell-based, Acinetobacter baumannii; conditions: MDRAB 12035
How it was run: as §1

[14] = tested on: multi-drug resistant bacteria; test: MIC, summary statements for multi-drug resistant bacteria; type: cell-based
How it was run: as §1

[15] = combined with peptide at 1 μg/ml
[16] = combined with peptide at 2 μg/ml
[17] = combined with peptide at 4 μg/ml
[18] = combined with peptide at 6 μg/ml
[19] = combined with peptide at 8 μg/ml
[20] = combined with peptide at 16 μg/ml
[21] = combined with peptide at 32 μg/ml
[22] = combined with peptide at 64 μg/ml
[23] = peptide combined with erythromycin
[24] = peptide combined with linezolid
[25] = peptide combined with vancomycin
[26] = peptide treatment concentration 1 μg/ml
[27] = peptide treatment concentration 2 μg/ml
[28] = peptide treatment concentration 4 μg/ml
[29] = peptide treatment concentration 6 μg/ml
[30] = peptide treatment concentration 8 μg/ml
[31] = peptide treatment concentration 16 μg/ml
[32] = peptide treatment concentration 32 μg/ml
[33] = peptide treatment concentration 64 μg/ml

## CC[C@H](C)[C@H](NC(=O)[C@H](CCCCN)NC(=O)[C@H](Cc1c[nH]c2ccccc12)NC(=O)[C@@H](N)CCCNC(=N)N)C(=O)N[C@@H](Cc1ccccc1)C(=O)N[C@@H](CCCCN)C(=O)N[C@@H](CCCCN)C(=O)N[C@H](C(=O)N[C@H](CC(C)C)C(=O)N[C@@H](CCCCN)C(=O)N[C@@H](CC(C)C)C(=O)N[C@@H](CC(C)C)C(=O)N[C@@H](Cc1c[nH]cn1)C(=O)N[C@@H](CCCCN)C(=O)N[C@@H](Cc1ccccc1)C(=O)N[C@@H](CCCCN)C(=O)N[C@@H](CCCCN)C(=O)N[C@@H](Cc1ccccc1)C(N)=O)[C@@H](C)CC [PapMA-21, RWK IFK KIl KLL HKF KKF-NH2] (H-RWKIFKKI[dL]KLLHKFKKF-NH2; N-terminus assumed)
[1]
  Minimal inhibitory concentration MIC: 32 µg/mL (≈ 13.3 µM)
[2]
  Minimal inhibitory concentration MIC: 32 µg/mL (≈ 13.3 µM)
[3]; [15]
  Antibiotic MIC, Erythromycin: 32 µg/mL
  Antibiotic MIC, Linezolid: >128 µg/mL
  Antibiotic MIC, Vancomycin: >128 µg/mL
[3]; [16]
  Antibiotic MIC, Erythromycin: 32 µg/mL
  Antibiotic MIC, Linezolid: >128 µg/mL
  Antibiotic MIC, Vancomycin: >128 µg/mL
[3]; [17]
  Antibiotic MIC, Erythromycin: 8 µg/mL
  Antibiotic MIC, Linezolid: 32 µg/mL
  Antibiotic MIC, Vancomycin: 64 µg/mL
[3]; [18]
  Antibiotic MIC, Erythromycin: 2 µg/mL
  Antibiotic MIC, Linezolid: 16 µg/mL
  Antibiotic MIC, Vancomycin: 32 µg/mL
[3]; [19]
  Antibiotic MIC, Erythromycin: 1 µg/mL
  Antibiotic MIC, Linezolid: 16 µg/mL
  Antibiotic MIC, Vancomycin: 16 µg/mL
[3]; [20]
  Antibiotic MIC, Erythromycin: 0.25 µg/mL
  Antibiotic MIC, Linezolid: 2 µg/mL
  Antibiotic MIC, Vancomycin: 8 µg/mL
[3]; [21]
  Antibiotic MIC, Erythromycin: 0 µg/mL
  Antibiotic MIC, Linezolid: 0 µg/mL
  Antibiotic MIC, Vancomycin: 0 µg/mL
[3]; [22]
  Antibiotic MIC, Erythromycin: 0 µg/mL
  Antibiotic MIC, Linezolid: 0 µg/mL
  Antibiotic MIC, Vancomycin: 0 µg/mL
[4]; [23]
  Average FIC index, Erythromycin: 0.15
[4]; [24]
  Average FIC index, Linezolid: 0.35
[4]; [25]
  Average FIC index, Vancomycin: 0.21
[5]; [23]
  Average FIC index, Erythromycin: 0.15
[5]; [24]
  Average FIC index, Linezolid: 0.28
[5]; [25]
  Average FIC index, Vancomycin: 0.26
[6]; [26]
  Erythromycin MIC during combined treatment with peptide: 32 µg/mL
  Linezolid MIC during combined treatment with peptide: >128 µg/mL
  Vancomycin MIC during combined treatment with peptide: >128 µg/mL
[6]; [27]
  Erythromycin MIC during combined treatment with peptide: 32 µg/mL
  Linezolid MIC during combined treatment with peptide: >128 µg/mL
  Vancomycin MIC during combined treatment with peptide: >128 µg/mL
[6]; [28]
  Erythromycin MIC during combined treatment with peptide: 16 µg/mL
  Linezolid MIC during combined treatment with peptide: 64 µg/mL
  Vancomycin MIC during combined treatment with peptide: 128 µg/mL
[6]; [29]
  Erythromycin MIC during combined treatment with peptide: 4 µg/mL
  Linezolid MIC during combined treatment with peptide: 32 µg/mL
  Vancomycin MIC during combined treatment with peptide: 64 µg/mL
[6]; [30]
  Erythromycin MIC during combined treatment with peptide: 1 µg/mL
  Linezolid MIC during combined treatment with peptide: 16 µg/mL
  Vancomycin MIC during combined treatment with peptide: 32 µg/mL
[6]; [31]
  Erythromycin MIC during combined treatment with peptide: 0.5 µg/mL
  Linezolid MIC during combined treatment with peptide: 8 µg/mL
  Vancomycin MIC during combined treatment with peptide: 16 µg/mL
[6]; [32]
  Erythromycin MIC during combined treatment with peptide: 0 µg/mL
  Linezolid MIC during combined treatment with peptide: 0 µg/mL
  Vancomycin MIC during combined treatment with peptide: 0 µg/mL
[6]; [33]
  Erythromycin MIC during combined treatment with peptide: 0 µg/mL
  Linezolid MIC during combined treatment with peptide: 0 µg/mL
  Vancomycin MIC during combined treatment with peptide: 0 µg/mL
[7]; with Erythromycin 16 μg/ml (Conc./MIC 1/8)
  Peptide MIC: 4 µg/mL
[7]; with Erythromycin 32 μg/ml (Conc./MIC 1/4)
  Peptide MIC: 2 µg/mL
[7]; with Erythromycin 64 μg/ml (Conc./MIC 1/2)
  Peptide MIC: 1 µg/mL
[7]; with Erythromycin […] (Conc./MIC 1)
  Peptide MIC: 0 µg/mL
[7]; with Linezolid 32 μg/ml (Conc./MIC 1/8)
  Peptide MIC: 8 µg/mL
[7]; with Linezolid 64 μg/ml (Conc./MIC 1/4)
  Peptide MIC: 4 µg/mL
[7]; with Linezolid […] (Conc./MIC 1)
  Peptide MIC: 0 µg/mL
[7]; with Linezolid […] (Conc./MIC 1/2)
  Peptide MIC: 2 µg/mL
[7]; with Vancomycin 512 μg/ml (Conc./MIC 1/2)
  Peptide MIC: 2 µg/mL
[7]; with Vancomycin 1024 μg/ml (Conc./MIC 1)
  Peptide MIC: 0 µg/mL
[7]; with Vancomycin […] (Conc./MIC 1/4)
  Peptide MIC: 4 µg/mL
[7]; with Vancomycin […] (Conc./MIC 1/8)
  Peptide MIC: 8 µg/mL
[8]; erythromycin 32 μg/ml (Conc./MIC 1/8)
  Peptide MIC during treatment with antibiotic: 2 µg/mL
[8]; erythromycin 64 μg/ml (Conc./MIC 1/4)
  Peptide MIC during treatment with antibiotic: 2 µg/mL
[8]; erythromycin […] (Conc./MIC 1)
  Peptide MIC during treatment with antibiotic: 0 µg/mL
[8]; erythromycin […] (Conc./MIC 1/2)
  Peptide MIC during treatment with antibiotic: 1 µg/mL
[8]; linezolid 64 μg/ml (Conc./MIC 1/8)
  Peptide MIC during treatment with antibiotic: 8 µg/mL
[8]; linezolid 512 μg/ml (Conc./MIC 1)
  Peptide MIC during treatment with antibiotic: 0 µg/mL
[8]; linezolid […] (Conc./MIC 1/2)
  Peptide MIC during treatment with antibiotic: 1 µg/mL
[8]; linezolid […] (Conc./MIC 1/4)
  Peptide MIC during treatment with antibiotic: 4 µg/mL
[8]; vancomycin 512 μg/ml (Conc./MIC 1/2)
  Peptide MIC during treatment with antibiotic: 2 µg/mL
[8]; vancomycin 1024 μg/ml (Conc./MIC 1)
  Peptide MIC during treatment with antibiotic: 2 µg/mL
[8]; vancomycin […] (Conc./MIC 1/4)
  Peptide MIC during treatment with antibiotic: 4 µg/mL
[8]; vancomycin […] (Conc./MIC 1/8)
  Peptide MIC during treatment with antibiotic: 8 µg/mL
[9]; [23]
  Average FIC index, Erythromycin: 0.40
[9]; [24]
  Average FIC index, Linezolid: 0.35
[9]; [25]
  Average FIC index, Vancomycin: 0.11
[10]; [23]
  Average FIC index, Erythromycin: 0.49
[10]; [24]
  Average FIC index, Linezolid: 0.22
[10]; [25]
  Average FIC index, Vancomycin: 0.17
[11]
  Minimal inhibitory concentration MIC: >128 µg/mL
[12]
  Minimal inhibitory concentration MIC: 32 µg/mL (≈ 13.3 µM)
  Peptide MIC, peptide alone: 32 µg/mL
[12]; A. baumannii and S. typhimurium
  Antibacterial activity relative to PapMA-1: at least twice as high
[13]; agent alone
  Minimal inhibitory concentration MIC: 32 µg/mL (≈ 13.3 µM)
[13]; no antibiotic
  Peptide MIC, peptide alone: 32 µg/mL
[14]
  Antibacterial activity relative to PapMA-1: twice to four times higher
